From patent publication US20080262029A1, “Acid and Base Salt Forms of Gaboxadol” (H. Lundbeck A/S, priority 2005, published 2008)
Counter-ions that a name gives are not always drawn.

Legend:
[1] = Differential scanning calorimetry (DSC) of gaboxadol salt forms; format: physicochemical; settings: for DSC exothermic decomposition onset / DSC exothermic transition onset: 25 to 300° C., 10° C./min, dry nitrogen
Protocol: (§1) The X-ray powder diffraction spectra was generated on a Philips Analytical X'Pert PRO X-ray Diffraction System with PW3040/60 console. A PW3373/00 ceramic Cu LEF X-ray tube K-Alpha radiation was used as the source. The X-ray powder diffraction spectrum was recorded at ambient temperature (CuKα radiation, 3° to 40° (2θ), steps of 0.014°, 0.2 sec per step), giving the results herein. Solid-state carbon-13 NMR spectrum was obtained on a Bruker DSX 400WB NMR system using a Bruker 4 mm double resonance CPMAS probe. Carbon-13 NMR spectrum utilized proton/carbon-13 cross-polarization magic-angle spinning with variable-amplitude cross polarization. The sample was spun at 15.0 kHz, and a total of 2048 scans were collected with a recycle delay of 20 seconds. A line broadening of 40 Hz was applied to the spectrum before FT was performed. Chemical shifts are reported on the TMS scale using the carbonyl carbon of glycine (176.03 p.p.m.) as a secondary reference. DSC traces were recorded between 25 and 300° C. (10° C./min), under a flow of dry nitrogen. TGA was carried out between 25 and 300° C. (10° C./min), under a flow of dry nitrogen.

[2] = Thermogravimetric analysis (TGA) of gaboxadol salt forms; format: physicochemical; settings: for TGA decomposition onset / TGA weight loss before decomposition (in words): 25 to 300° C., 10° C./min, dry nitrogen
Protocol: as §1

[3] = target: GABAA receptors comprising α4 and δ subunits (Homo sapiens, UniProt O14764+P48169); settings: Brown et al, British J. Pharmacol., 136, 965-74 (2002); cited from earlier work
Sequence of GABAA receptors comprising α4 and δ subunits (P48169 36-554): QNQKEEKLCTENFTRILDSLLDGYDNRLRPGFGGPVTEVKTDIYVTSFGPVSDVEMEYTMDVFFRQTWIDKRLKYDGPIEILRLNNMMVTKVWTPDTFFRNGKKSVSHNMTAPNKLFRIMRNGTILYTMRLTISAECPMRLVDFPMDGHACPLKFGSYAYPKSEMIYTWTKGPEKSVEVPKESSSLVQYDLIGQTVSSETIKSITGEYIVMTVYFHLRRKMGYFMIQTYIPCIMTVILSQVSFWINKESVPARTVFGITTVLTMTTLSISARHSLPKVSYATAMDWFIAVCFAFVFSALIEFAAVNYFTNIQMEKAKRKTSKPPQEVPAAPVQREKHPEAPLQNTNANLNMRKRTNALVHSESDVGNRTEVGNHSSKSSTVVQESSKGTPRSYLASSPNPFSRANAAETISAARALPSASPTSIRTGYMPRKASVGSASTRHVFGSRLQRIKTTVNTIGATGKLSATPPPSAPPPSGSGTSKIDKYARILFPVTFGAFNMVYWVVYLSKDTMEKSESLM
Sequence of GABAA receptors comprising α4 and δ subunits (O14764 25-452): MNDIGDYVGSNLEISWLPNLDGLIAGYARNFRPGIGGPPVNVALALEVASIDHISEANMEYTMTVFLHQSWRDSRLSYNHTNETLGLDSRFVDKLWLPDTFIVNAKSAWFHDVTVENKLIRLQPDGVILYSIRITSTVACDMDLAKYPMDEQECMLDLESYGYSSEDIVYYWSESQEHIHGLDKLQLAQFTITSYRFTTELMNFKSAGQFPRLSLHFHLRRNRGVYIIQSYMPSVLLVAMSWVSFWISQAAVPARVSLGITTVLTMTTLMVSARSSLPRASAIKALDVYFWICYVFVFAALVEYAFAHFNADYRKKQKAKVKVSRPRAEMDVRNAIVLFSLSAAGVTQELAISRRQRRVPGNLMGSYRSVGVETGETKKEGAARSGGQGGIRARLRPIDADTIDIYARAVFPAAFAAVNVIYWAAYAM
Sequence of GABAA receptors comprising α4 and δ subunits (P28472 26-473 partner): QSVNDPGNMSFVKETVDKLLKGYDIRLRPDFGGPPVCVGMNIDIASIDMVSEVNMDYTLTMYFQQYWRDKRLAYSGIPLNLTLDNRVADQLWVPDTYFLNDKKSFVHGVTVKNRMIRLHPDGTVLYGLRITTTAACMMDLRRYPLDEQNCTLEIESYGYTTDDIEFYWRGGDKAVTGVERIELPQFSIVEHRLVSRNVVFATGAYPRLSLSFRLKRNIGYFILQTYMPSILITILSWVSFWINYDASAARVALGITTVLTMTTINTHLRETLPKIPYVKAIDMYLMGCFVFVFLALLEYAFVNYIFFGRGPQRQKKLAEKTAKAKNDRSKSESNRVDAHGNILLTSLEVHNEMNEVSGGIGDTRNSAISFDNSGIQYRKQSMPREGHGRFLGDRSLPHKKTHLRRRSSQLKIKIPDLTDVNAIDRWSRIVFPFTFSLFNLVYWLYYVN

Oc1noc2c1CCNC2 [Calcium Salt, gaboxadol calcium]
DSC observation of exothermic events (in words) ([1]; solid analysed by DSC): exhibited exothermic decomposition

C[N+](C)(C)CCO.[O-]c1noc2c1CCNC2 [Choline Salt, gaboxadol choline]
DSC observation of exothermic events (in words) ([1]; solid analysed by DSC): exhibited exothermic transitions

Oc1noc2c1CCNC2.c1ccc(CNCCNCc2ccccc2)cc1 [N,N-Dibenzyl-ethylenediamine Salt, gaboxadol N,N-dibenzyl(ethylene)diamine]
DSC observation of exothermic events (in words) ([1]; solid analysed by DSC): exhibited an exothermic transition

Oc1noc2c1CCNC2 [Potassium Salt, gaboxadol potassium]
DSC observation of exothermic events (in words) ([1]; solid analysed by DSC): exhibited exothermic transitions

Oc1noc2c1CCNC2 [Sodium Salt, gaboxadol sodium]
DSC observation of exothermic events (in words) ([1]; solid analysed by DSC): exhibited exothermic transitions

O=C(O)CC(O)(CC(=O)O)C(=O)O.Oc1noc2c1CCNC2 [gaboxadol citrate]
DSC exothermic decomposition onset [1]: 175 °C | TGA decomposition onset [2]: about 190 °C | TGA weight loss ([2]; from 32° C. to 103° C.): 8.9 wt %

Oc1noc2c1CCNC2 [gaboxadol, 4,5,6,7-tetrahydroisoxazolo[5,4-c]pyridin-3-ol]
Agonist potency (in words) [3]: particularly potent agonist

gaboxadol L-lysine [L-Lysine Salt]
DSC observation of exothermic events (in words) ([1]; solid analysed by DSC): exhibited exothermic transitions

gaboxadol acetate [Acetate Salt]
DSC exothermic transition onset [1]: 204 °C | TGA decomposition onset [2]: 205 °C | TGA weight loss ([2]; from 40° C. to 115° C.): 5.0 wt %

gaboxadol bis-sulfate [Sulfate Salt from ethanol and acetonitrile (Type III)]
DSC exothermic decomposition onset [1]: 207 °C | TGA decomposition onset [2]: about 220 °C | TGA weight loss, step 2 ([2]; from 118° C. to 154° C.): 0.8 wt % | TGA weight loss, step 1 ([2]; from about 50° C. to 118° C.): 1.4 wt %

gaboxadol bis-sulfate [Sulfate Salt from trifluorotoluene (Type I)]
DSC exothermic decomposition onset [1]: 220 °C | TGA decomposition onset [2]: about 220 °C | TGA weight loss, step 2 ([2]; from 87° C. to 180° C.): 4.3 wt % | TGA weight loss, step 1 ([2]; from about 50° C. to 87° C.): 1.2 wt %

gaboxadol citrate [Citrate Salt from isopropyl acetate]
DSC exothermic transition onset [1]: 175 °C | TGA decomposition onset [2]: about 190 °C | TGA weight loss ([2]; from 31° C. to 109° C.): 18.5 wt %

gaboxadol fumarate [Fumarate Salt]
DSC exothermic decomposition onset [1]: 215 °C | TGA decomposition onset [2]: about 190 °C | TGA weight loss before decomposition (in words) [2]: no weight loss

gaboxadol magnesium [Magnesium Salt]
Temperature below which DSC indicated no exothermic events ([1]; solid analysed by DSC): approximately 345 °C

gaboxadol phosphate [Phosphate Salt]
DSC exothermic decomposition onset [1]: about 200 °C | TGA decomposition onset [2]: 214 °C | TGA weight loss before decomposition (in words) [2]: no weight loss

gaboxadol succinate [Succinate Salt]
DSC exothermic decomposition onset [1]: 198 °C | TGA decomposition onset [2]: 193 °C | TGA weight loss before decomposition (in words) [2]: no weight loss

gaboxadol sulfate [Sulfate Salt (1 mol equiv.)]
DSC exothermic decomposition onset [1]: about 190 °C | TGA decomposition onset [2]: 196 °C | TGA weight loss ([2]; from 50° C. to 176° C.): 7.1 wt %

gaboxadol tartrate [L-Tartrate Salt]
DSC exothermic decomposition onset [1]: 199 °C | TGA decomposition onset [2]: about 189 °C | TGA weight loss ([2]; from 31° C. to 177° C.): 0.6 wt %
